Reference: paper PMC10933344, “A lncRNA Dleu2-encoded peptide relieves autoimmunity by facilitating Smad3-mediated Treg induction” (EMBO Reports, 2024)

Legend:
[1] = system: Foxp3 CNS1-luciferase reporter / Smad3; assay: Foxp3 CNS1-luciferase reporter assay in NIH/3T3 cells; assay type: cell-based, mouse; conditions: 20 μM
[2] = system: CD4+ T cells in CNS of EAE mice; assay: Flow cytometry of CNS T cells of treated EAE mice; assay type: in vivo, mouse; conditions: 100 μg i.v.
Experimental: Figure 5 Dleu2-17aa attenuates EAE by promoting Treg cells. (A) Schematic diagram of MOG-induced EAE and treatment strategies with Dleu2-17aa, scrPEP, and Glatiramer. Mice received 100 μg of Dleu2-17aa or scrPEP every 3 days via i.v. injection or 150 μg of Glatiramer every day for seven times via s.c. on days 9 to 15. (B) Clinical scores were examined daily from day 9 using a scoring system ranging from 0 (no sign) to 5 (complete paralysis or dead). The x-axis represents experimental days, and the y-axis represents symptom severity (n = 8–9). (C) Representative Luxol fast blue (LFB) and hematoxylin and eosin staining (H&E) staining sections for treated EAE spinal cord. Scale bars: 100 μm. (D) Histopathology scores of inflammations and demyelination in treated EAE mice spinal cord using a scoring system ranging from 0 (no inflammatory cells or demyelination) to 4 (extensive inflammatory cells infiltration or confluent foci of demyelination) (n = 5–8). (E) Representative dot plots (left panel) and frequency (right panel) of CD44^hiCD62L^lo activated T cells, Foxp3^+ Treg cells, IL-17A^+ Th17 cells, and IFN-γ^+ Th1 cells gated on CD4^+ T cells in the spleen 14 days post immunization of MOG (n = 3). (F) Representative dot plots and frequency of CD4^+, Foxp3^+ Treg cells, and IFN-γ^+ Th1 cells gated on CD4^+ T cells in the CNS 14 days post immunization of MOG (n = 3). Data information: n indicates biological replicate. Error bars are mean ± SEM; *P < 0.05, **P < 0.01, and ***P < 0.001, n.s. indicates no significant difference. Statistical analysis was by two-way ANOVA for (B) and two-tailed Student’s t-test for (D–F). Source data are available online for this figure. TEXT PRINTED IN THE PICTURE: (E) scrPEP: Spleen: CD62L-PE-DF594 / CD44-PE: 78.2; Spleen: Foxp3-PE / CD4-APC: 7.38; Spleen: IFN-γ-Percp-cy5.5 / Il-17A-FITC: 4.67; Spleen: IFN-γ-Percp-cy5.5 / Il-17A-FITC: 0.18; Spleen: IFN-γ-Percp-cy5.5 / Il-17A-FITC: 94.7; Spleen: IFN-γ-Percp-cy5.5 / Il-17A-FITC: 0.44 | (E) Dleu2-17aa: Spleen: CD62L-PE-DF594 / CD44-PE: 37.2; Spleen: Foxp3-PE / CD4-APC: 12.9; Spleen: IFN-γ-Percp-cy5.5 / Il-17A-FITC: 2.83; Spleen: IFN-γ-Percp-cy5.5 / Il-17A-FITC: 0.26; Spleen: IFN-γ-Percp-cy5.5 / Il-17A-FITC: 96.1; Spleen: IFN-γ-Percp-cy5.5 / Il-17A-FITC: 0.79 | (F) scrPEP: CNS: FSC / CD4-APC: 9.03; CNS: Foxp3-PE / CD4-APC: 8.47; CNS: IFN-γ-Percp-cy5.5 / Il-17A-FITC: 22.9; CNS: IFN-γ-Percp-cy5.5 / Il-17A-FITC: 2.00; CNS: IFN-γ-Percp-cy5.5 / Il-17A-FITC: 69.7; CNS: IFN-γ-Percp-cy5.5 / Il-17A-FITC: 5.44 | (F) Dleu2-17aa: CNS: FSC / CD4-APC: 3.33; CNS: Foxp3-PE / CD4-APC: 15.5; CNS: IFN-γ-Percp-cy5.5 / Il-17A-FITC: 13.9; CNS: IFN-γ-Percp-cy5.5 / Il-17A-FITC: 2.65; CNS: IFN-γ-Percp-cy5.5 / Il-17A-FITC: 77.7; CNS: IFN-γ-Percp-cy5.5 / Il-17A-FITC: 5.79 DOUBTS OF THE COPYIST ABOUT THIS PICTURE: Panels E and F: the gate and quadrant numbers in the dot plots are printed with no measure or unit; the tissue heading and the axis labels of each plot are written in front of them. For the quadrant plots the order is upper left, upper right, lower left, lower right. / Panels E and F: the gate numbers are in small print, so 3, 5, 6, 8 and 9 are best readings: E scrPEP 78.2, 7.38, 4.67, 0.18, 94.7; E Dleu2-17aa 37.2, 12.9, 2.83, 0.26, 96.1, 0.79; F scrPEP 9.03, 8.47, 22.9, 69.7, 5.44; F Dleu2-17aa 3.33, 15.5, 13.9, 2.65, 5.79.
For active EAE immunization, myelin oligodendrocyte glycoprotein peptide (MOGp35–55, […], GenScript) was emulsified in complete Freund adjuvant (Sigma-Aldrich). An equivalent of 300 μg MOG peptide was injected per mouse subcutaneously followed by 200 ng of pertussis toxin (Merck-Calbiochem) injection intravenously on day 0 and day 2 of immunization. […]

## ARGPARRMRGGRRRRLR [scrPEP, scrambled control peptide of Dleu2-17aa]
[1]; with Smad3 vector, replicate 4
  Relative luciferase activity: 1.896
[1]; with Smad3 vector, replicate 5
  Relative luciferase activity: 1.262
[1]; without Smad3 vector, replicate 4
  Relative luciferase activity: 0.7583
[1]; without Smad3 vector, replicate 5
  Relative luciferase activity: 0.8478
[2]; replicate 1
  CD4+ / Live Cells(%): 9.03%
  Foxp3+/ CD4+ Cells (%): 8.94%
  IFN-γ+/ CD4+ Cells(%): 22.8%
[2]; replicate 2
  CD4+ / Live Cells(%): 10.1%
  Foxp3+/ CD4+ Cells (%): 9.11%
  IFN-γ+/ CD4+ Cells(%): 22.9%
[2]; replicate 3
  CD4+ / Live Cells(%): 9.74%
  Foxp3+/ CD4+ Cells (%): 8.47%
  IFN-γ+/ CD4+ Cells(%): 23.8%
